Patent publication US10851067B2, “Kv7 channel activators compositions and methods of use” (Knopp Biosciences LLC, priority 2018, dated 2020)

Target: Kv7.2/7.3 (Homo sapiens, UniProt O43525+O43526)
Test: Kv7.2/7.3 Activation Assay, QPatch single concentration screen
Format: cell-based
Set-up: host or cells: HEK cells, tetracycline-inducible expression; key: 1.2-2.9 (+); 3-3.9 (++); >4 (+++) fold increase over baseline; O represents open channel at holding potential
Conditions: Kv7.2/Kv7.3 co-expressing HEK cells, compound concentration 3 μM, steady-state current at end of 2 s pulse to −30 mV
Procedure, shortened: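 Tetracycline-induced HEK cells expressing human Kv7.2/7.3, recorded 24 h post-induction by automated planar patch clamp. From −80 mV, 2 s steps to −30 mV then 100 ms to −120 mV; compound tested at 3 μM (0.1% DMSO). Steady-state current at end of −30 mV step gives fold increase over baseline.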

Structure (SMILES)	Kv7.2/7.3 Activity: increase over baseline in current
CC1(CC(=O)Nc2nc3c(F)cc(C(C)(C)O)cc3n2C2CCC2)CC1 [Example 403, N-(1-cyclobutyl-4-fluoro-6-(2-hydroxypropan-2-yl)-1H-benzo[d]imidazol-2-yl)-2-(1-methylcyclopropyl)acetamide]	++ (3-3.9 (++))
CC(C)(O)c1ccc2nc(NC(=O)CC(C)(C)C(F)(F)F)n(C34CC(C3)C4)c2c1 [Example 404, N-(1-(bicyclo[1.1.1]pentan-1-yl)-6-(2-hydroxypropan-2-yl)-1H-benzo[d]imidazol-2-yl)-4,4,4-trifluoro-3,3-dimethylbutanamide]	+ (1.2-2.9 (+))
CC(C)(O)c1cc(F)c2nc(NC(=O)CC3CC(F)(F)C3(F)F)n(C3CCC3)c2c1 (stereo not shown) [Example 405, N-(1-cyclobutyl-4-fluoro-6-(2-hydroxypropan-2-yl)-1H-benzo[d]imidazol-2-yl)-2-(2,2,3,3-tetrafluorocyclobutyl)acetamide]	++ (3-3.9 (++))
CC(C)(O)c1ccc2nc(NC(=O)CC(C)(C)C3CC3)n(CC(F)(F)F)c2c1 [Example 406, 3-cyclopropyl-N-(6-(2-hydroxypropan-2-yl)-1-(2,2,2-trifluoroethyl)-1H-benzo[d]imidazol-2-yl)-3-methylbutanamide]	+++ (>4 (+++) fold increase over baseline)
C[C@H](C(=O)Nc1nc2ccc(C(C)(C)O)cc2n1CC(F)(F)F)C(C)(C)C [Example 407, (S)-N-(6-(2-hydroxypropan-2-yl)-1-(2,2,2-trifluoroethyl)-1H-benzo[d]imidazol-2-yl)-2,3,3-trimethylbutanamide]	++ (3-3.9 (++))
CC(C)(CC(=O)Nc1nc2cccc(F)c2n1C1CCC1)C(F)(F)F [Example 408, N-(1-cyclobutyl-7-fluoro-1H-benzo[d]imidazol-2-yl)-4,4,4-trifluoro-3,3-dimethylbutanamide]	++ (3-3.9 (++))
CC1(n2c(NC(=O)CC(O)(c3ccccc3)C(F)(F)F)nc3c(F)cc(OC(F)F)cc32)CCC1 (stereo not shown) [Example 409, N-(6-(difluoromethoxy)-4-fluoro-1-(1-methylcyclobutyl)-1H-benzo[d]imidazol-2-yl)-4,4,4-trifluoro-3-hydroxy-3-phenylbutanamide]	+ (1.2-2.9 (+))
C[C@@H](CC(=O)Nc1nc2c(F)cc(C(C)(C)O)cc2n1C1CCC1)c1ccccc1 [Example 410, (S)-N-(1-cyclobutyl-4-fluoro-6-(2-hydroxypropan-2-yl)-1H-benzo[d]imidazol-2-yl)-3-phenylbutanamide]	O
CC(C)(C)CC(=O)Nc1nc2c(F)cc(C#N)cc2n1C1CCC1 [Example 411, N-(6-cyano-1-cyclobutyl-4-fluoro-1H-benzo[d]imidazol-2-yl)-3,3-dimethylbutanamide]	+++ (>4 (+++) fold increase over baseline)
C[C@H](CC(=O)Nc1nc2c(F)cc(C(C)(C)O)cc2n1C1CCC1)c1ccccc1 [Example 412, (R)-N-(1-cyclobutyl-4-fluoro-6-(2-hydroxypropan-2-yl)-1H-benzo[d]imidazol-2-yl)-3-phenylbutanamide]	++ (3-3.9 (++))
CC(C)(O)c1cc(F)c2nc(NC(=O)CSC(F)(F)F)n(C3CCC3)c2c1 [Example 413, N-(1-cyclobutyl-4-fluoro-6-(2-hydroxypropan-2-yl)-1H-benzo[d]imidazol-2-yl)-2-((trifluoromethyl)thio)acetamide]	+++ (>4 (+++) fold increase over baseline)
COc1c(Cl)c(Cl)c(Cl)c2nc(NC(=O)CC(C)(C)C)n(C3CCC3)c12 [Example 414, 3,3-dimethyl-N-(4,5,6-trichloro-1-cyclobutyl-7-methoxy-1H-benzo[d]imidazol-2-yl)butanamide]	++ (3-3.9 (++))
CC(C)(C)CC(=O)Nc1nc2ccc(F)cc2n1C1CCC1 [Example 417, N-(1-cyclobutyl-6-fluoro-1H-benzo[d]imidazol-2-yl)-3,3-dimethylbutanamide]	++ (3-3.9 (++))
CC1(n2c(NC(=O)CC(C)(C)C(F)(F)F)nc3c(OC(F)F)cc(C#N)cc32)CCC1 [Example 419, N-(6-cyano-4-(difluoromethoxy)-1-(1-methylcyclobutyl)-1H-benzo[d]imidazol-2-yl)-4,4,4-trifluoro-3,3-dimethylbutanamide]	+ (1.2-2.9 (+))
CC(C)(C)CC(=O)Nc1nc2c(F)cc(C#N)cc2n1C(C)(C)C [Example 420, N-(1-(tert-butyl)-6-cyano-4-fluoro-1H-benzo[d]imidazol-2-yl)-3,3-dimethylbutanamide]	+ (1.2-2.9 (+))
CC(C)(C)CC(=O)Nc1nc2c(F)cc(C3(O)CCC3)cc2n1C1CCC1 [Example 421, N-(1-cyclobutyl-4-fluoro-6-(1-hydroxycyclobutyl)-1H-benzo[d]imidazol-2-yl)-3,3-dimethylbutanamide]	+++ (>4 (+++) fold increase over baseline)

Structure (SMILES)	Kv7.2/7.3 Activity: increase over baseline in current
CC1(n2c(NC(=O)CC(O)(CF)CF)nc3ccc(OC(F)F)c(F)c32)CCC1 [Example 423, N-(6-(difluoromethoxy)-7-fluoro-1-(1-methylcyclobutyl)-1H-benzo[d]imidazol-2-yl)-4-fluoro-3-(fluoromethyl)-3-hydroxybutanamide]	+ (1.2-2.9 (+))
CC(C)(C)CC(=O)Nc1nc2cc(F)c(C3(O)CCC3)c(F)c2n1C1CCC1 [Example 424, N-(1-cyclobutyl-5,7-difluoro-6-(1-hydroxycyclobutyl)-1H-benzo[d]imidazol-2-yl)-3,3-dimethylbutanamide]	O
CC(C)(C)CC(=O)Nc1nc2ccc(C(C)(C)O)cc2n1C12CC(C1)C2 [Example 425, N-(1-(bicyclo[1.1.1]pentan-1-yl)-6-(2-hydroxypropan-2-yl)-1H-benzo[d]imidazol-2-yl)-3,3-dimethylbutanamide]	++ (3-3.9 (++))
CC(C)(CC(=O)Nc1nc2cccc(C#N)c2n1C1(C)CCC1)C1CC1 [Example 426, N-(7-cyano-1-(1-methylcyclobutyl)-1H-benzo[d]imidazol-2-yl)-3-cyclopropyl-3-methylbutanamide]	+++ (>4 (+++) fold increase over baseline)
CC(C)(CC(=O)Nc1nc2ccc(OC(F)F)cc2n1C(C)(C)C)C1CC1 [Example 427, N-(1-(tert-butyl)-6-(difluoromethoxy)-1H-benzo[d]imidazol-2-yl)-3-cyclopropyl-3-methylbutanamide]	++ (3-3.9 (++))
COc1ccc2nc(NC(=O)CC(C)(C)C)n(C3CCC3)c2c1F [Example 429, N-(1-cyclobutyl-7-fluoro-6-methoxy-1H-benzo[d]imidazol-2-yl)-3,3-dimethylbutanamide]	+++ (>4 (+++) fold increase over baseline)
CC(C)(CC(=O)Nc1nc2c(F)cc(C#N)cc2n1C12CC(C1)C2)C(F)(F)F [Example 431, N-(1-(bicyclo[1.1.1]pentan-1-yl)-6-cyano-4-fluoro-1H-benzo[d]imidazol-2-yl)-4,4,4-trifluoro-3,3-dimethylbutanamide]	++ (3-3.9 (++))
CC(C)(C)CC(=O)Nc1nc2ccc(C3(F)COC3)cc2n1C1CCC1 [Example 432, N-(1-cyclobutyl-6-(3-fluorooxetan-3-yl)-1H-benzo[d]imidazol-2-yl)-3,3-dimethylbutanamide]	+++ (>4 (+++) fold increase over baseline)
COc1cc(F)c2nc(NC(=O)CC(C)(C)C(F)(F)F)n(C3(C)CCC3)c2c1 [Example 433, 4,4,4-trifluoro-N-(4-fluoro-6-methoxy-1-(1-methylcyclobutyl)-1H-benzo[d]imidazol-2-yl)-3,3-dimethylbutanamide]	++ (3-3.9 (++))
CC(C)(CC(=O)Nc1nc2ccc(OC(F)F)cc2n1C1(C)CCC1)C1CC1 [Example 434, 3-cyclopropyl-N-(6-(difluoromethoxy)-1-(1-methylcyclobutyl)-1H-benzo[d]imidazol-2-yl)-3-methylbutanamide]	+++ (>4 (+++) fold increase over baseline)
CC(C)(O)c1ccc2nc(NC(=O)Cc3cccc(F)c3)n(C3(C)CCC3)c2c1 [Example 435, 2-(3-fluorophenyl)-N-(6-(2-hydroxypropan-2-yl)-1-(1-methylcyclobutyl)-1H-benzo[d]imidazol-2-yl)acetamide]	O
CC(C)(C)CC(=O)Nc1nc2cc(F)cc(C#N)c2n1C1(C)CCC1 [Example 436, N-(7-cyano-5-fluoro-1-(1-methylcyclobutyl)-1H-benzo[d]imidazol-2-yl)-3,3-dimethylbutanamide]	++ (3-3.9 (++))
CC(C)(C)CC(=O)Nc1nc2cc(F)c(C#N)cc2n1C1(C)CCC1 [Example 437, N-(6-cyano-5-fluoro-1-(1-methylcyclobutyl)-1H-benzo[d]imidazol-2-yl)-3,3-dimethylbutanamide]	++ (3-3.9 (++))
CC(C)(C)CC(=O)Nc1nc2c(F)cc(C(C)(C)O)c(F)c2n1C1CCC1 [Example 438, N-(1-cyclobutyl-4,7-difluoro-6-(2-hydroxypropan-2-yl)-1H-benzo[d]imidazol-2-yl)-3,3-dimethylbutanamide]	O
CC(C)(C)CC(=O)Nc1nc2ccc(Cl)c(C#N)c2n1C1CCC1 [Example 439, N-(6-chloro-7-cyano-1-cyclobutyl-1H-benzo[d]imidazol-2-yl)-3,3-dimethylbutanamide]	+ (1.2-2.9 (+))
